In assay [1] the test system is CA1 hippocampal pyramidal cells. As to the kind of experiment: Input resistance and neuronal excitability (spiking), hippocampal slice. The settings on record: puberty. The class given is cell-based, mouse. The procedure: Tonic current was recorded as the difference current produced by 120 μM gabazine, which blocks all GABAA receptor, before and after 30 nM THP^24. Current was also recorded in response to 2 s 10 mV steps in the holding potential, and current-voltage curves generated to the steady-state current. Because fast-inactivating conductances would not be excluded in a voltage ramp, stable steady-state current responses were used instead to construct the current-voltage (IV) curves. Input resistance (Rm) was calculated from the current response to voltage steps from −60 to −40 mV using Ohm's Law. The reversal potential was determined by the […] of the IV curve (−90 to −10 mV). The gabazine-sensitive slope conductance was assessed as the slope of the linear portion of outward current plot recorded before and after THP after subtraction of the gabazine-generated current (in the presence of L-655,708 to block α5-GABAA receptors). Only data with a stable baseline and pipet access resistance <10 MΩ were included in the analysis.
Effects of THP on cell excitability were tested by monitoring spiking using cell attached patch recordings^31 in voltage clamp mode (−40 mV holding potential, 150 mM NaCl intrapipet solution) or assessing the current threshold to spiking and spike frequency in current clamp mode (0.01-0.3 nA steps, starting from −1 nA, 1 s duration). (More complete details are supplied in the Supplementary Methods.)

For another assay, the system named is α4β2δ GABAA receptors. As to the kind of experiment: Whole cell patch clamp of GABA-gated current, recombinant receptors in HEK-293 cells. Type of assay: cell-based, human or mouse α4, rat β2, human δ. The text has this:
(§1) Recombinant receptors: Transfection—Plasmids obtained from S. Vicini (rat α1, α5, β2, β3 and γ2), P. Whiting (human α4 and δ) and N. L. Harrison (mouse α4) were propagated in E coli DH5α and prepared using Qiagen Maxi- or Midi-prep kits. (Rat, mouse and human α1, β2, β3 and γ2 subunits are identical or nearly identical.) All receptors were transfected at a 1:1:1 ratio, except α1β2γ2 (1:1:5)^12, α4βδ (5:1:5)^13 and α4β2γ2 (5:1:1). HEK-293 cells were maintained in medium (DMEM:Ham's F-12 1:1) supplemented with 10% fetal calf serum at 37° C. in a humid 5% CO2 atmosphere. Cells were transfected using calcium phosphate or Polyfect (Qiagen) and co-transfected with enhanced green fluorescent protein (ratio of DNA to eGFP was 6:1 or 10:1 depending on the DNA concentration) for visualization. α4-containing GABAA receptors required 2-3 d for maximal levels of expression; all other receptors were recorded 1-2 d after transfection. Because mouse α4 and human α4-containing receptors yielded the same results, the currents were averaged together.
Whole cell patch clamp recording—GABA-gated currents were recorded at room temperature (20-22° C.) at a holding potential of −50 mV^14. The pipet solution contained (in mM): N-methyl-D-glucamine chloride 120, Cs4BAPTA 5 (Calbiochem), Mg-ATP 5, and an ATP regeneration system (20 mM Tris phosphocreatine and creatine kinase). Internal [Cl^−] or the holding potential were varied, using gluconate as the anion, to alter the direction of Cl^− flow, corrected for the junction potential. In some cases, current-voltage curves were constructed using the peak current response to agonist or agonist+THP across a range of holding potentials (−60 to +60) applied as 10 mV steps, or as a voltage ramp. […] Traces are presented as the average of 3 traces after subtraction of the leak current. […] This rapid application technique yields currents with a rapid rise phase. THP was also bath applied 30 s prior to tests of steroid effects. Currents were recorded using an Axopatch 1D amplifier (Axon Instruments) filtered at 2 kHz (four-pole Bessel filter) and detected at 10 kHz (pClamp 5.1). Analysis of peak current was accomplished with pClamp 9.2 and Origin software (Microcal).
Following the recording, the patch was blown out, and the open tip potential recorded using solutions with a 5% difference in NaCl osmolarity to verify the approximate solution exchange time. The time constant (τ) for desensitization was approximated using non-linear curve fitting routines with Levenburg-Marquardt algorithms (Origin software, Microcal). Goodness of fit was determined by minimizing the sum of the squares of deviations of the theoretical curve from the experimental points.
Recombinant receptors: Human embryonic kidney (HEK)-293 cells were transfected with α4 β2δ or other indicated subunit combinations (see Supplementary Methods) and co-transfected with enhanced green fluorescent protein for visualization. GABA-gated currents were recorded at room temperature (20-22° C.) at a holding potential of −50 mV^17 using a pipet solution containing 120 mM: N-methyl-D-glucamine chloride. Internal [Cl^−] or the holding potential were varied to alter the direction of Cl^− flow. […] Currents were recorded using an Axopatch 1D amplifier (Axon Instruments) filtered at 2 kHz (four-pole Bessel filter), detected at 10 kHz and analyzed with pClamp 9.2. Desensitization rate was determined using non-linear curve-fitting routines (Origin, Microcal; see next section).
Further Studies with Recombinant receptors: Transfection—Plasmids obtained from S. Vicini (rat α1, α5, β2, β3 and y2), P. Whiting (human α4 and 6) and N. L. Harrison (mouse α4) were propagated in E coli DH5α and prepared using Qiagen Maxi- or Midi-prep kits. (Rat, mouse and human α1, β2, β3 and γ2 subunits are identical or nearly identical.) All receptors were transfected at a 1:1:1 ratio, except a132γ2 (1:1:5)^12, α4β28 (5:1:5)^13 and α4β2γ2 (5:1:1). […]
(In patch-clamp work, channel activity is measured electrically.)

Another assay deals with α4β2γ2 receptors. The assay is described as above. Type of assay: cell-based, human or mouse α4, rat β2, rat γ2.
Source text: as §1
Whole cell patch clamp recording—GABA-gated currents were recorded at room temperature (20-22° C.) at a holding potential of −50 mV^14. […] Currents were recorded using an Axopatch 1D amplifier (Axon Instruments) filtered at 2 kHz (four-pole Bessel filter) and detected at 10 kHz (pClamp 5.1). […]

The subject of a further assay is hippocampal THP levels. As to the kind of experiment: Radioimmunoassay of hippocampal 3α,5α-THP levels. The settings on record: administration of 5α-reductase blocker. Type of assay: in vivo, mouse. The text has this: Animal subjects. Prepubertal and pubertal female C57BL6 mice (3½-6 weeks old, +/+ and δ^−/−1) were housed in a reverse light:dark cycle (12:12). Both sets of mice were originally supplied by G. Homanics (Univ. of Pittsburgh), and were bred on site, with +/+ mice supplemented from Jackson Laboratories (Bar Harbor, Me.). Initially, age-matched+/+littermates of the δ^−/−were used as controls, but because they were indistinguishable from C57BL6, data from both groups were pooled. Genotyping of the tails verified that mice were homozygous δ^−/−. […] The onset of puberty was determined by vaginal opening, and pubertal mice tested on the day of first metestrus, identified by vaginal morphology and verification of first estrus the previous day. […] Individual stages of puberty were not distinguished, and pre-pubertal mice were used before any visible signs of pubertal development, assessed by development of the peri-vaginal area. […]
Radioimmunoassay for 3α,5α-THP. Hippocampal levels of 3α,5α-THP were assessed by radioimmunoassay (RIA) by C. […] Sample tube concentrations were calculated using the logit-log method^6, interpolation of the standards, and correction for recovery. […]

In assay [2] the test system is CA1 hippocampal pyramidal cells (α4βδ receptors). As to the kind of experiment: La3+-sensitive gaboxadol-induced current, whole cell patch clamp, hippocampal slice. Type of assay: cell-based, mouse. Conditions: 30 μM GBX, after puberty or THP Wd.
For assay [3], the system named is CA1 hippocampal pyramidal cell dendrites. As to the kind of experiment: Tight-seal cell-attached current-clamp recording during dendritic agonist application. Type of assay: cell-based, mouse. The settings on record: 5 μM; stratum radiatum; pubertal. On the procedure:
Tonic current was recorded as the difference current produced by the selective GABAA receptor antagonist gabazine (120 μM) before and after 30 nM THP^4,29, while gramicidin perforated-patch recordings^33 were accomplished using 140 mM KCl plus 25 μg ml^−1 gramicidin in the pipet solution, recorded when the access resistance dropped to <60 MΩ after tight seal formation. Estimates of the direction of Cl^− current were obtained by recording using tight-seal cell-attached techniques^31 (>1 GΩ seal) in current clamp mode. A downward deflection signified outward (i.e., hyperpolarizing) Cl^− current.
To determine whether THP inhibition of GABAergic currents at puberty was a physiological phenomenon, we initially verified that GABA-gated currents were outward in CA1 hippocampal pyramidal cell dendrites at the onset of puberty. […] The voltage change was recorded in current clamp mode from the soma using tight-seal cell attached techniques at a holding current of 0 pA^31.

A further assay deals with female C57BL6 mice. As to the kind of experiment: Elevated plus maze (with or without restraint stress). Type of assay: in vivo, mouse. Conditions: pre-administration before restraint stress; pubertal. The text has this: Animal subjects. Prepubertal and pubertal female C57BL6 mice (3½-6 weeks old, +/+ and δ^−/−1) were housed in a reverse light:dark cycle (12:12). Both sets of mice were originally supplied by G. Homanics (Univ. of Pittsburgh), and were bred on site, with +/+ mice supplemented from Jackson Laboratories (Bar Harbor, Me.). Initially, age-matched+/+littermates of the δ^−/−were used as controls, but because they were indistinguishable from C57BL6, data from both groups were pooled. Genotyping of the tails verified that mice were homozygous δ^−/−. Some animals (+/+ or δ^−/−) were injected with finasteride (1,(5α)-androstene-4-aza-3-one-N-tert-butyl-17β-carboxaminde, Steraloids, 50 mg kg^, −1 intraperitoneally, 3 days) to block THP synthesis^2 or oil vehicle on a daily basis 1-1.5 h before dark onset, when THP levels increase, and tested 30 min. later. The onset of puberty was determined by vaginal opening, and pubertal mice tested on the day of first metestrus, identified by vaginal morphology and verification of first estrus the previous day. Mice with vaginal smears representative of diestrus were excluded from the study. Individual stages of puberty were not distinguished, and pre-pubertal mice were used before any visible signs of pubertal development, assessed by development of the peri-vaginal area. In some cases, pubertal mice were injected with replacement THP (3α-OH-5β-pregnan-20-one, 10 mg kg^−1, intraperitoneally in oil) for three days before testing. Procedures were in accordance with the SUNY Downstate Institutional Animal Care and Use Committee.
Restraint stress. In order to test the effect stress-induced release of THP^6,46,47 on anxiety, mice were restrained in a clear Plexiglas tube-type holder (Harvard Apparatus) for 45 min. and tested 20 min. later on the elevated plus maze (see Supplementary Methods). Open arm time was evaluated for 5 min. on the elevated plus maze. A decrease in open arm time reflects an increase in anxiety^18. In all cases, the results from each mouse tested after restraint was expressed relative to the averaged results from the sham controls, which were identical to the stressed animals (age, genotype, sex, drug-injected), except that they were not subjected to restraint stress.
Elevated plus maze. Testing rodent behavior on the elevated plus maze is an established animal model of anxiety^31. The plus maze consists of four 8×35 cm arms at 90° angles, elevated 57 cm above the floor. Two arms are enclosed by 33 cm walls, and two arms have no walls (“open arms”). […] Each animal was initially acclimated to the room for 30 min-1 h before being placed in the center of the maze, and exploratory activity recorded for 5 min. […]

Where a name gives a salt, the structure may show the parent alone.

For `CCN(c1ccccc1)c1cc(=NC)n(C)c(C)n1.Cl` [ZD 7288], in assay [1] (20 μM ZD 7288), the “effect of Ih blockade on excitatory effect of THP” value is “did not prevent the excitatory effect of THP”.
On to `COc1ccc(-c2ccc(=N)n(CCCC(=O)O)n2)cc1` [gabazine, 6-imino-3-(4-methyoxyphenyl)-1 (6H)-pyridazinebutanoic acid hydrobromide], for which, in assay [1] (120 μM gabazine pre-applied), the “effect on THP-induced increase of input resistance” value is “prevented”.
For the molecule `NCCCC(=O)O` [GABA], in the assay with α4β2δ GABAA receptors, the “GABA EC20” value stood at […] and the “GABA EC75” value turned out to be […]. Moreover, the “GABA EC20” value in the assay on α4β2γ2 receptors was 5000 nM.
On to `CC(C)(C)NC(=O)[C@H]1CC[C@H]2[C@@H]3CC[C@H]4NC(=O)C=C[C@]4(C)[C@H]3CC[C@]12C` [5α-reductase blocker, 1,(5α)-androstene-4-aza-3-one-N-tert-butyl-17β-carboxaminde], for which the “decline in hippocampal THP levels” value in the assay on hippocampal THP levels was 58±10%.
As for `Oc1noc2c1CCNC2` [gaboxadol, 4,5,6,7-Tetrahydroisoxazolo[5,4-c]pyridin-3-ol], the “GBX-generated current vs pre-pubertal slices” value in assay [2] is recorded as “significantly larger current”. Besides, in assay [3], the “change in membrane potential on dendritic application” value is listed as “downward shift of the membrane potential”.
Take `[La+3]` [La^3+]: the “reduction of GBX-generated current” value in assay [2] (300 μM La3+) was 50-70%.
Take `CC(=O)[C@H]1CC[C@H]2[C@@H]3CC[C@H]4C[C@@H](O)CC[C@]4(C)[C@H]3CC[C@]12C` (single isomer, unassigned; isomer 3) [3β-OH isomer, 3βOH-5α[β]-pregnan-20-one]: the “inhibitory effect on outward GABA-gated current” value in the assay with α4β2δ GABAA receptors (isomer selectivity, FIG. 1e) was “selective for the active 3α-OH isomer, but not the inactive 3,3-OH isomer”. In addition, in the assay with female C57BL6 mice, the “effect on stress-induced increase in anxiety” value was “prevented the stress-induced increase in anxiety”.

These data come from patent US20090269795A1, “Mutant alpha4betadelta GABAA receptor and methods of treating anxiety or irritability” (priority 2007, published 2009).
